Experiment [1] deals with T1, Piezo-type mechanosensitive ion channel component 1 (Mus musculus, UniProt E2JF22). As to the kind of experiment: Binding affinity to mouse Piezo1 assessed as dissociation constant by SPR assay. A general note: In SPR one partner is held on a chip, and binding of the other changes the refractive index at the surface.
The target in experiment [2] is T1, Piezo-type mechanosensitive ion channel component 1. As to the kind of experiment: Agonist activity at mouse Piezo1 transfected in human HEK293T cells by FLIPR assay. The format is cell-based.
Experiment [3] concerns the target T2, Piezo-type mechanosensitive ion channel component 1 (Homo sapiens, UniProt Q92508). As to the kind of experiment: Agonist activity at human Piezo1 transfected in human HEK293T cells by FLIPR assay. It counts as cell-based.
Experiment [4] deals with T1, Piezo-type mechanosensitive ion channel component 1. As to the kind of experiment: Inhibition of mouse Piezo1.
Experiment [5] deals with T2, Piezo-type mechanosensitive ion channel component 1. As to the kind of experiment: Inhibition of Piezo1 (unknown origin) transfected in human HEK293 cells assessed as rightward shift in pressure-gating curve at 50 mV at 1 to 4 uM. It counts as cell-based. The following applies: dose 1-4 µM.
For experiment [6] the target is unchanged. As to the kind of experiment: Binding affinity to Piezo1 (unknown origin) transfected in human HEK293 cells assessed as equilibrium constant at 40 mmHg/+50 mV. It counts as cell-based.

Bridge positions count the residues as written; N and C are the ends. Peptide text beside a SMILES is read from it.

T1 sequence (E2JF22 whole entry): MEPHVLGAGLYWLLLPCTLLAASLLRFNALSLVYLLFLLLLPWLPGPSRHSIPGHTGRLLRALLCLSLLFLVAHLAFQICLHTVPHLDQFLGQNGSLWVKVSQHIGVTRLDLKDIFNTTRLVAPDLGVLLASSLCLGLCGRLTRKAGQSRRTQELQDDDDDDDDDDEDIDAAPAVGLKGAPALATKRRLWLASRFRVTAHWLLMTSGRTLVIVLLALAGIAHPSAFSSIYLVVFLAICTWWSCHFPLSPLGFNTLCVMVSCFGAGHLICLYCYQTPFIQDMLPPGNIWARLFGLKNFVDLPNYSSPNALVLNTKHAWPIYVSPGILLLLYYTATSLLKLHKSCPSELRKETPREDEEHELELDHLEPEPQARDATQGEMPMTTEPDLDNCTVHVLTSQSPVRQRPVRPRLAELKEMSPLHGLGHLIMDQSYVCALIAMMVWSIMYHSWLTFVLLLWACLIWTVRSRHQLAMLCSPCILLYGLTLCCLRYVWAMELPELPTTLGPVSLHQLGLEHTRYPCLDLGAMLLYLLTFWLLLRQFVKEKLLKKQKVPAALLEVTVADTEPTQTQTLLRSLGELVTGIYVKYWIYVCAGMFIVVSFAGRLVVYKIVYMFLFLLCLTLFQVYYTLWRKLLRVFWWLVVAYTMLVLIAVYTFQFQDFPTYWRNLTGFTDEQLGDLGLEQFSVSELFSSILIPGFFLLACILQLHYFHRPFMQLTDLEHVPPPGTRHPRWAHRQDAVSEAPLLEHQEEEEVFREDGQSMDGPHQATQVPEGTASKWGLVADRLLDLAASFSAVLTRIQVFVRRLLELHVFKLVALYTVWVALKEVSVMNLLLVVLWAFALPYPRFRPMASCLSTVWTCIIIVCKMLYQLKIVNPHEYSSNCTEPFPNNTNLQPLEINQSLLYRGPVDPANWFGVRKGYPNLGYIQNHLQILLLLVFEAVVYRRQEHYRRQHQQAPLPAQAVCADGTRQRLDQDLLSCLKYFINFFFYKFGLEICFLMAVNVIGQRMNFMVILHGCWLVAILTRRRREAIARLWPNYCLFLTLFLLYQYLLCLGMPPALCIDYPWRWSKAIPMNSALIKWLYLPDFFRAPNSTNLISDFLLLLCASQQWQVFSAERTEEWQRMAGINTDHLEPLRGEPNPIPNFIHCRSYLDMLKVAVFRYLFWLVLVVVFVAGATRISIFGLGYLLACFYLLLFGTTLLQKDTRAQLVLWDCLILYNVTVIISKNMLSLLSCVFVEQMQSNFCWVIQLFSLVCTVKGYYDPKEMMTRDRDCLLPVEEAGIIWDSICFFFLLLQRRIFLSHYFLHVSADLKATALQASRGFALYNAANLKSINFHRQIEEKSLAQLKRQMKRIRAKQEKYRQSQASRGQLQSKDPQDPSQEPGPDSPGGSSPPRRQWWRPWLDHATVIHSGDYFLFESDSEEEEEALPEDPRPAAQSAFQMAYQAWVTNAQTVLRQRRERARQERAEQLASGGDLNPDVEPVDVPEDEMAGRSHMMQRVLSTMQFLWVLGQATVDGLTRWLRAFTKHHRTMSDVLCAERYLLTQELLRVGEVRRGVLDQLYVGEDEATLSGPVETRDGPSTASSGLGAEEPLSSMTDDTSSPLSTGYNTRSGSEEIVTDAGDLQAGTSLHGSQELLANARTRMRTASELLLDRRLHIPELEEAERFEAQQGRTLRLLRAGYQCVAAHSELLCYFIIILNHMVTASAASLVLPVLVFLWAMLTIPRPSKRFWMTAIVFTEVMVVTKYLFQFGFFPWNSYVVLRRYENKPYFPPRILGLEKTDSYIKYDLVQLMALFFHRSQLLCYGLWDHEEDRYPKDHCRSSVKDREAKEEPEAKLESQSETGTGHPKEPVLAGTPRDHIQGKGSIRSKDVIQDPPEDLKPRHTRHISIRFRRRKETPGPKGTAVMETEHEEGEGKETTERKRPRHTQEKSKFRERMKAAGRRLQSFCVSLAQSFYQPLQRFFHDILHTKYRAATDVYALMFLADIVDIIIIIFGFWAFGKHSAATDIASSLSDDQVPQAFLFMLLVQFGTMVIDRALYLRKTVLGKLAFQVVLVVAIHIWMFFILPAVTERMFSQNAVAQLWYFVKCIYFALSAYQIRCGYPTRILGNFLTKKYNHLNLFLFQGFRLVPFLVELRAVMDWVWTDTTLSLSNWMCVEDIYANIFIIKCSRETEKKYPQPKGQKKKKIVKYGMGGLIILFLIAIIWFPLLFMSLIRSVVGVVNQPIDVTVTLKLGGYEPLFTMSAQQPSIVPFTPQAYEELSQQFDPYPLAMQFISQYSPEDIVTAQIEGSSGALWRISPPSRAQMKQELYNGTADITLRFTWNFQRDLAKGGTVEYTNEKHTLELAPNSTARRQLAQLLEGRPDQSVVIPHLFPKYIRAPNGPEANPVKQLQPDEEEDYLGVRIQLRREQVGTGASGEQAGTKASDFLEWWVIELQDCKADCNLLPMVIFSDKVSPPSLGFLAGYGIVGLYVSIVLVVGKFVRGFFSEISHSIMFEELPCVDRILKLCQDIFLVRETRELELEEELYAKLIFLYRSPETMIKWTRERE
T2 sequence (Q92508 whole entry): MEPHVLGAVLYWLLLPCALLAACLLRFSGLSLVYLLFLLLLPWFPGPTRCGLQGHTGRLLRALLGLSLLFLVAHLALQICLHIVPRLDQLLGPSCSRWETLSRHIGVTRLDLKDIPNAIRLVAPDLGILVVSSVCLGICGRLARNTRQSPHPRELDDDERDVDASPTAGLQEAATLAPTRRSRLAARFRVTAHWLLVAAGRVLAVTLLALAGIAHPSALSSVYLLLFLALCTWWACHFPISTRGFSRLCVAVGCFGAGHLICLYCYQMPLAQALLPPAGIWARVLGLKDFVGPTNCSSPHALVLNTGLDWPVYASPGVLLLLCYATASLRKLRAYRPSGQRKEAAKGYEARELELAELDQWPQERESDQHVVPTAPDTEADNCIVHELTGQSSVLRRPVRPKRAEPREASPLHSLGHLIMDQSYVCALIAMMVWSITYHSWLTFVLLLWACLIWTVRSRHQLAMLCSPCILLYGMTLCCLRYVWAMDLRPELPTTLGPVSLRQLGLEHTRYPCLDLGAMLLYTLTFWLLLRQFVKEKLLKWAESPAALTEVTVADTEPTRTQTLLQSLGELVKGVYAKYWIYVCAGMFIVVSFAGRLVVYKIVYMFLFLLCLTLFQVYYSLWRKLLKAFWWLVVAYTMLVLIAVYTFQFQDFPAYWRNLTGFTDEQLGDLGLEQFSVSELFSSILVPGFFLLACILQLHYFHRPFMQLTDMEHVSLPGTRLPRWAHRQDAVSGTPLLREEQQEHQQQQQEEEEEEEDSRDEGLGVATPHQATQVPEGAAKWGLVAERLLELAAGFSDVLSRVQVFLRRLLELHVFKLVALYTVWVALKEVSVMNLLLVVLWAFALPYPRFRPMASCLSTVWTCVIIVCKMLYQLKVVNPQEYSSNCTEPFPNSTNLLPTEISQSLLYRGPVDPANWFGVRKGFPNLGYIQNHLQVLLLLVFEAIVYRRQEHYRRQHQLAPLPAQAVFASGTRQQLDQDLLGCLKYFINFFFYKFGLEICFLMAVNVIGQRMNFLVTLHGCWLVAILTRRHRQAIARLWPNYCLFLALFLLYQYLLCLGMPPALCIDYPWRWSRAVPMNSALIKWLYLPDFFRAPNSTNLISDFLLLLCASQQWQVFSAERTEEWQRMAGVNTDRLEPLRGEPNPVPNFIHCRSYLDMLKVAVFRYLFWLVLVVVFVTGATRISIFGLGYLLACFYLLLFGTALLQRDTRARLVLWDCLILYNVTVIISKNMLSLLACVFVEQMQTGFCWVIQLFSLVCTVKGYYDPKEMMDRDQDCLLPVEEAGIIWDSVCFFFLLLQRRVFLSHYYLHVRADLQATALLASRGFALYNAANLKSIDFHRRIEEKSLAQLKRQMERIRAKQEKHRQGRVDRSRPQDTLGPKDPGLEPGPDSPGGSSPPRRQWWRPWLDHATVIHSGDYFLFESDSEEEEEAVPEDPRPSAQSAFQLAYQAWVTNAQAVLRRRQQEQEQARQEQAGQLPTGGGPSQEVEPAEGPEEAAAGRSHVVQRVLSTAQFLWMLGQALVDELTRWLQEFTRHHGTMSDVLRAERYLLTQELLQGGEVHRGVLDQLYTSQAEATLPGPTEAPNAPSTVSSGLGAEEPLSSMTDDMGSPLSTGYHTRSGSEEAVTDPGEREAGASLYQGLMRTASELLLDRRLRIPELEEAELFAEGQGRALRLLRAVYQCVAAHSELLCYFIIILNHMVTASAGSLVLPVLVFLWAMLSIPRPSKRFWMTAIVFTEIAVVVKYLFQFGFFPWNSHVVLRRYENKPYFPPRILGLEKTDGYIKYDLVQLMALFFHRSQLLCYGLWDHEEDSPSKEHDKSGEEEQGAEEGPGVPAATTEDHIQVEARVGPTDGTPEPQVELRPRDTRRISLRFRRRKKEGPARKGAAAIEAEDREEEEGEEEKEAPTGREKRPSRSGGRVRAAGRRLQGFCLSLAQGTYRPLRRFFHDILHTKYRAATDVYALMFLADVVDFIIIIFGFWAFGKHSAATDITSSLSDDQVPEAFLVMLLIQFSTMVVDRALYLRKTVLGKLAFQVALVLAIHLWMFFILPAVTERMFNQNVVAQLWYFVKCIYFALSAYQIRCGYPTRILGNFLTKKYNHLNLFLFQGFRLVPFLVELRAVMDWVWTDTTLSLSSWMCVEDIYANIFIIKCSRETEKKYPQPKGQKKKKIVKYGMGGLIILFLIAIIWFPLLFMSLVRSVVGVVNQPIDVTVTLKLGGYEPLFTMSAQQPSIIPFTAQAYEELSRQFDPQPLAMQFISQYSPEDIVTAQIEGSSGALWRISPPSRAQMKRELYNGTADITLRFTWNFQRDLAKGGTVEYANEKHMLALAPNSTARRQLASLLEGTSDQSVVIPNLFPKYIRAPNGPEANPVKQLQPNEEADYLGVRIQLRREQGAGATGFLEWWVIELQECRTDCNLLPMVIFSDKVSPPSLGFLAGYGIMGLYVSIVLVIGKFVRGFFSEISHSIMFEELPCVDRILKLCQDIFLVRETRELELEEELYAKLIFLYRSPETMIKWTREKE

With `Cc1oc(-c2cccs2)cc1C(=O)O`, in experiment [1], the Kd – broadly, the equilibrium constant for the complex coming apart – came to 2240 µM.

`Clc1cccc(Cl)c1CSc1nnc(-c2cnccn2)s1`: the EC50 (in general, the concentration that produces a half-maximal response) in experiment [2] came out at 17.1 µM; in experiment [3], 26.6 µM.

In turn, `Cc1oc(-c2ccccc2)cc1C(=O)O` returned an EC50 in experiment [4] of 200 µM.

As to `CC(C)C[C@@H]1NC(=O)[C@@H](NC(=O)CN)CSSC[C@@H]2NC(=O)[C@@H]3CSSC[C@@H](C(=O)N[C@@H](CC(N)=O)C(=O)N[C@@H](Cc4ccccc4)C(=O)N[C@@H](CO)C(=O)N[C@@H](Cc4ccccc4)C(N)=O)NC(=O)[C@H](CC(C)C)NC(=O)[C@H](CCCCN)NC(=O)[C@H](Cc4ccccc4)NC(=O)[C@H](CC(C)C)NC(=O)[C@H](CCCCN)NC(=O)[C@H](CO)NC(=O)[C@H](CSSC[C@H](NC(=O)[C@H](CCCCN)NC(=O)[C@H](Cc4c[nH]c5ccccc45)NC(=O)[C@H](Cc4c[nH]c5ccccc45)NC(=O)[C@H](Cc4ccccc4)NC(=O)[C@H](CCC(=O)O)NC1=O)C(=O)N[C@@H](CC(N)=O)C(=O)N1CCC[C@H]1C(=O)N[C@@H](CC(N)=O)C(=O)N[C@@H](CC(=O)O)C(=O)N[C@@H](CC(=O)O)C(=O)N[C@@H](CCCCN)C(=O)N3)NC(=O)[C@H](CCCCN)NC(=O)[C@H](CC(C)C)NC(=O)[C@H](CCCCN)NC(=O)[C@@H]1CCCN1C(=O)[C@H](CCCNC(=N)N)NC2=O` (H-GCLEFWWKCNPNDDKCCRPKLKCSKLFKLCNFSF-NH2; disulfide 2-17, 9-23, 16-30), the Activity in experiment [5] worked out at 30 mmHg. In addition, in experiment [6], the Ke was 155 nM.

For the origin of these results see ChEMBL document CHEMBL5143676, “Piezo-Type Mechanosensitive Ion Channel Component 1 (Piezo1): A Promising Therapeutic Target and Its Modulators” (J Med Chem, 2022).
